Test [1] has as its target T1, NAD-dependent protein deacetylase sirtuin-1 (Homo sapiens) (UniProt Q96EB6).
T1 sequence (whole entry): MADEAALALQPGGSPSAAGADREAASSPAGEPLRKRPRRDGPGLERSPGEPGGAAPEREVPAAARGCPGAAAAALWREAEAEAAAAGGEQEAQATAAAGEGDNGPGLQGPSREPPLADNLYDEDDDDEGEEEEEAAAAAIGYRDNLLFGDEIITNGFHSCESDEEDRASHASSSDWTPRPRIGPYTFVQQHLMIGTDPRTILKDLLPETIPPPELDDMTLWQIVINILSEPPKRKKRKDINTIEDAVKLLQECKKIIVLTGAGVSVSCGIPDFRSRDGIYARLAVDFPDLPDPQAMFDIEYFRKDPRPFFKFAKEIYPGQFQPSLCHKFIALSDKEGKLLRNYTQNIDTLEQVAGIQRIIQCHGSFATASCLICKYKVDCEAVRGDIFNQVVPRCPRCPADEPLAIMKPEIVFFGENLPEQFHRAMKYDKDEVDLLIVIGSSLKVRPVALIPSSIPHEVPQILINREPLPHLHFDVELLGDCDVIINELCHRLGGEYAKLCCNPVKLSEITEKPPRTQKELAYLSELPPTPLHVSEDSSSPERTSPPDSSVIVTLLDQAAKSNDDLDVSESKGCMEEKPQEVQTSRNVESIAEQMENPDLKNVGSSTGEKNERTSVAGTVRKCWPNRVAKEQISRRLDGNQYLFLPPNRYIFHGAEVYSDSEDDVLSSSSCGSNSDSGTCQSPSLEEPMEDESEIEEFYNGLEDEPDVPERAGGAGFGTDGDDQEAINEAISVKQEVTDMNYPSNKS
As to the kind of experiment: Activation of human N-terminal hexa-histidine tagged SIRT1 expressed in Escherichia coli BL21 (DE3) using peptide substrate by fluorescence polarization assay relative to control. Conditions: filed as activator. On the technique in general: In fluorescence polarisation assays a small probe gives low polarisation when free and higher when bound to something large.

A short description of test [2]: Activation of human G6PD canton (R459L) mutant assessed as restoration of activity using G6P as substrate incubated for 3 hrs d by substrate addition and mesured after 2.5 mins by diaphorase-coupled enzyme assay.
Test [3] is filed under the species Homo sapiens. As to the kind of experiment: Activation of human G6PD canton (R459L) mutant assessed as restoration of activity using G6P as substrate incubated for 3 hrs d by substrate addition and mesured after 2.5 mins by diaphorase-coupled enzyme assay relative to wild type G6PD activity percentage.
In test [4] the target is T2, Serine/threonine-protein kinase ULK1 (Homo sapiens) (UniProt O75385).
T2 sequence (whole entry): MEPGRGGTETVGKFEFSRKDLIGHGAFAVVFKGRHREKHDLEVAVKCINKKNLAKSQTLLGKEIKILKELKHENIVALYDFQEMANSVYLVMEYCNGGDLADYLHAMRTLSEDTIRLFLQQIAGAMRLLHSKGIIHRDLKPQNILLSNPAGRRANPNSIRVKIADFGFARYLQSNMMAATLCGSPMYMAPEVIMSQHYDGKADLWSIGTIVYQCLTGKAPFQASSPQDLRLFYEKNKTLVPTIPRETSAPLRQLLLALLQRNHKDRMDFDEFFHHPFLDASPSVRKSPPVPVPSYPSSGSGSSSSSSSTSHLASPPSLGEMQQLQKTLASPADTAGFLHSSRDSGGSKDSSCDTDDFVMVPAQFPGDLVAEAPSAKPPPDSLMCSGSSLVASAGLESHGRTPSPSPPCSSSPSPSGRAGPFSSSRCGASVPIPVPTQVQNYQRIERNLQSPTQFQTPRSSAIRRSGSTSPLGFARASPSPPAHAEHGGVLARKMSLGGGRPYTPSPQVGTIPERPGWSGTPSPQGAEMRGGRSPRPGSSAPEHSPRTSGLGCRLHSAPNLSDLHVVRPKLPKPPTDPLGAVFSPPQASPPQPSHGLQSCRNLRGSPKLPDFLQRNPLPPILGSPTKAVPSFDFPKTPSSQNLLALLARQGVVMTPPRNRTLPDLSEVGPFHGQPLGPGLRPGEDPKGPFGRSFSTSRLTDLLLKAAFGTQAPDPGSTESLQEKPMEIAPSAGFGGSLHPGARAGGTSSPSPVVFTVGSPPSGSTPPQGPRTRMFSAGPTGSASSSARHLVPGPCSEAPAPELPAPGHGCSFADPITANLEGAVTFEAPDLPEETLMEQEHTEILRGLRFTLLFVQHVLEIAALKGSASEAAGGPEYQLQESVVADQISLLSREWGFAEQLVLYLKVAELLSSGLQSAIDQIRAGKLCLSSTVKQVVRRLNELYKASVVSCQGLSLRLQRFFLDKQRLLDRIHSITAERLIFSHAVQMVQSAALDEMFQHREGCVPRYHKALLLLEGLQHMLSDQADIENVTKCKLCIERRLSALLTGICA
In words: Agonist activity at ULK1 (unknown origin) expressed in HEK293T cells at 100 nM incubated for 60 mins by ADP-Glo luminescence assay relative to control. It counts as cell-based. Particulars: filed as agonist. In general terms: In ADP-Glo the light output rises with the ADP produced.

The target of test [5] is T1, NAD-dependent protein deacetylase sirtuin-1 (Homo sapiens). In words: Activation of human N-terminal hexa-histidine tagged SIRT1 expressed in Escherichia coli BL21 (DE3) using peptide substrate by fluorescence polarization assay. Particulars: filed as activator.

Experimental findings from ChEMBL document CHEMBL5150023, “The Pursuit of Enzyme Activation: A Snapshot of the Gold Rush” (J Med Chem, 2022) are described below.

For orientation: Emax means the maximal effect, on the per cent scale that the assay sets. `Oc1ccc(/C=C/c2cc(O)cc(O)c2)cc1`: the Emax in test [1] was found to be 201%. A word on the EC50: it is the concentration giving half of the maximal effect. Regarding `c1ccc2c(CCNCCSSCCNCCc3c[nH]c4ccccc34)c[nH]c2c1`, the EC50 in test [2] stood at 3 µM. Besides, the Activity in test [3] amounted to 30%.

For the molecule `CC(C)CN(CC(=O)N1CCN(CC(OCc2ccc3ccccc3c2)c2ccc(Cl)cc2Cl)CC1)CC(C)C` (stereo unspecified), the Activity in test [4] amounted to 243%. As for `O=C(Nc1ccccc1-c1cn2c(CN3CCNCC3)csc2n1)c1cnc2ccccc2n1`, the Emax in test [1] is 781%. In test [5], this molecule showed an EC1.5 of 0.16 µM.
